Calls of active or inactive are those of the source. The rule behind the calls is not given here.
Columns and labels:
[1] = Half life in cynomolgus monkey at 0.5 mg/kg, iv administered as single dose measured up to 24 hrs post dose by LC-MS/MS analysis; type: ADME, organism-based, Macaca fascicularis; details: in vivo
[2] = Oral bioavailability in C57BL6 mouse at 1 mg/kg administered as single dose measured up to 24 hrs post dose by LC-MS/MS analysis; type: ADME, organism-based; details: in vivo
[3] = Volume of distribution at steady state in Sprague-Dawley rat at 1 mg/kg, iv administered as single dose measured up to 24 hrs post dose by LC-MS/MS analysis; type: ADME, organism-based; details: in vivo, read-out: Vdss
[4] = Tmax in cynomolgus monkey at 1 mg/kg, po administered as single dose measured up to 24 hrs post dose by LC-MS/MS analysis; type: ADME, organism-based, Macaca fascicularis; details: in vivo
Mus musculus [5] = experiment: Antidiabetic activity in po dosed C57BL/6J mouse assessed as reduction of plasma glucose excursion administered 1 hr prior to glucose challenge measured after 120 mins by IPGTT; type: functional, organism-based
[6] = Half life in Sprague-Dawley rat at 1 mg/kg, iv administered as single dose measured up to 24 hrs post dose by LC-MS/MS analysis; type: ADME, organism-based; details: in vivo
[7] = biological target: Voltage-gated inwardly rectifying potassium channel KCNH2 (Homo sapiens, UniProt Q12809); experiment: Inhibition of human ERG (unknown origin) at <10 uM
Voltage-gated inwardly rectifying potassium channel KCNH2, sequence (Q12809 whole entry): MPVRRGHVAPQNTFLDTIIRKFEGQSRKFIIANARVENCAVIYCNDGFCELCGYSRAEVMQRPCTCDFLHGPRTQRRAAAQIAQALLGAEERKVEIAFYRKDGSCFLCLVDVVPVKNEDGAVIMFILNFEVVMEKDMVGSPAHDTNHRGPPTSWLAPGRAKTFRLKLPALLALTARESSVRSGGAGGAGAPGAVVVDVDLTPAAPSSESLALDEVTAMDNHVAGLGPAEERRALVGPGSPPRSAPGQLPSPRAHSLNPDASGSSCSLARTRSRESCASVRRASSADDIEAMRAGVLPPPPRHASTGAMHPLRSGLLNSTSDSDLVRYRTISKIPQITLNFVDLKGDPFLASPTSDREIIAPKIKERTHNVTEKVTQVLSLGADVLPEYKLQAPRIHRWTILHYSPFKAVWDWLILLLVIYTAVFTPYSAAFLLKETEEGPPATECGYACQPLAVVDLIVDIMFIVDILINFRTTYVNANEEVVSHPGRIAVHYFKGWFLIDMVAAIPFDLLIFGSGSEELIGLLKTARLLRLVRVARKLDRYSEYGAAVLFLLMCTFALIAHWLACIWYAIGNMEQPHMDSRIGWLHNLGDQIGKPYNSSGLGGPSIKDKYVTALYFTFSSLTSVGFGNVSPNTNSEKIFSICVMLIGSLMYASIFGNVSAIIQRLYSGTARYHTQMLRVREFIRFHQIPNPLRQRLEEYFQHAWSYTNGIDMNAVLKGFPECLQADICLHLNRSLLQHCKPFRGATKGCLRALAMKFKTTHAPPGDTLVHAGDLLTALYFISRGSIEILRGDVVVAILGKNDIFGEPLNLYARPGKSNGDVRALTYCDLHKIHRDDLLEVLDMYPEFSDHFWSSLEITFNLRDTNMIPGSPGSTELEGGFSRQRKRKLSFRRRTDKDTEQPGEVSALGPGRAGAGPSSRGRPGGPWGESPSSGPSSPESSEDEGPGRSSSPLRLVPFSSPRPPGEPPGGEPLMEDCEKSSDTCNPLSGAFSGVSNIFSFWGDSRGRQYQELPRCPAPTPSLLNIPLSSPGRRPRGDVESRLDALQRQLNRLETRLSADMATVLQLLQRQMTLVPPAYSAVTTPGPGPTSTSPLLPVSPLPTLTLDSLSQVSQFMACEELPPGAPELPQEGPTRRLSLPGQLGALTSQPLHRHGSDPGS

[8] = Tmax in Sprague-Dawley rat at 3 mg/kg, po administered as single dose measured up to 24 hrs post dose by LC-MS/MS analysis; type: ADME, organism-based; details: in vivo
[9] = Cmax in cynomolgus monkey at 1 mg/kg, po administered as single dose measured up to 24 hrs post dose by LC-MS/MS analysis; type: ADME, organism-based, Macaca fascicularis; set-up: dose 1 mg/kg, route oral; details: in vivo
Mus musculus [10] = experiment: Antidiabetic activity in C57BL/6J mouse assessed as reduction in plasma glucose excursion at 3 mg/kg, po administered 1 hr prior to glucose challenge measured after 120 mins by OGTT assay; type: functional, organism-based
Mus musculus [11] = experiment: Antidiabetic activity in C57BL/6J mouse assessed as increase in plasma insulin levels at 3 mg/kg, po administered 1 hr prior to glucose challenge measured after 120 mins during OGTT by ELISA; type: functional, organism-based
[12] = Tmax in C57BL6 mouse at 1 mg/kg, po administered as single dose measured up to 24 hrs post dose by LC-MS/MS analysis; type: ADME, organism-based; details: in vivo

COc1cc(N2CC[C@@H](Oc3ccc(N4N=C(C(F)(F)F)[C@@H](C)[C@@H]4CC(=O)O)cc3)[C@H](C)C2)c(Cl)cn1
half-life [1]: 13 h | bioavailability [2]: 100% | Vd [3]: 0.3 L/kg | Tmax [4]: 5 h | Activity (Mus musculus [5]): Dose-dependent effect | half-life [6]: 4 h | inhibition (INH) [7]: Not Active | Tmax [8]: 1.3 h | Cmax [9]: 1400 nM | Activity (Mus musculus [10]): Active | Activity (Mus musculus [11]): Active | Tmax [12]: 1 h

Source: ChEMBL document CHEMBL4020824, “Discovery of Potent and Orally Bioavailable Dihydropyrazole GPR40 Agonists” (J Med Chem, 2018)
